Results from patent publication US11866433B2, “Diarylthiohydantoin compound as androgen receptor antagonist” (CHIA TAI TIANQING PHARMACEUTICAL GROUP CO., LTD., priority 2017, dated 2024).

Target: T1, androgen receptor (AR) (Homo sapiens, UniProt P10275)
T1 sequence (P10275 1-920): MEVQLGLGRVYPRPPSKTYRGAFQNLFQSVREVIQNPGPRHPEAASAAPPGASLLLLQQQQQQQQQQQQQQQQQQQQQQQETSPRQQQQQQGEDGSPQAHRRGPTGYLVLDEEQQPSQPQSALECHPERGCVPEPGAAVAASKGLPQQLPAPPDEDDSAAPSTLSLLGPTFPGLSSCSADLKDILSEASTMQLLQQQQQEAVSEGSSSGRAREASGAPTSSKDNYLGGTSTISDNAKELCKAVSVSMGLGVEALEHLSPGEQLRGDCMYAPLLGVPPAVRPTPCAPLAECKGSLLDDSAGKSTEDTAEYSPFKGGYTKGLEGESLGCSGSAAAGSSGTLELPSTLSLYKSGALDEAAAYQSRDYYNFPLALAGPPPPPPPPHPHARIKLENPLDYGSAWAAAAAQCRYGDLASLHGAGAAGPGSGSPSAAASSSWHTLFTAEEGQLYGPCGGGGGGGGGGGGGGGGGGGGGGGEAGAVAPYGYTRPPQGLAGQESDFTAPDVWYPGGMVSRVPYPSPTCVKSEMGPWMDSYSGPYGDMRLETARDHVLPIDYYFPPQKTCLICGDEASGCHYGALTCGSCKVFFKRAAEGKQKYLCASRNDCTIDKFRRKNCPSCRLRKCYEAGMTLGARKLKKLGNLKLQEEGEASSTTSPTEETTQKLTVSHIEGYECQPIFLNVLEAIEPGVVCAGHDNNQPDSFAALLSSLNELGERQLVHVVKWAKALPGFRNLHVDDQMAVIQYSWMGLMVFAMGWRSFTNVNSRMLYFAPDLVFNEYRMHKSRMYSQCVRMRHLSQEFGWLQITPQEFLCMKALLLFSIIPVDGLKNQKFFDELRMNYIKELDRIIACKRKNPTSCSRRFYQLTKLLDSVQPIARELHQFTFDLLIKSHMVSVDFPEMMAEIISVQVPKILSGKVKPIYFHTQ
Assay: Antagonism of compounds on nuclear translocation of androgen receptor (PathHunter NHR cell lines)
Format: cell-based
Settings: antagonist mode, agonist 6a-Fluorotestosterone 0.06 μM (EC80)
Experimental: Example 75 Test of Antagonism of Compounds on Nuclear Translocation of Androgen Receptor (AR)
1. PathHunter NHR cell lines were recovered and cultured for amplification.
2. The cells were inoculated onto a 384-well plate prior to testing, and incubated at 37° C. The serum for culture was filtered with charcoal-dextran to reduce the hormone level therein.
3. In the detection of the antagonistic function, a compound was added to the cells and incubated for 60 min. The working concentration of the test compound was diluted from 10 μM at a 3-fold concentration gradient, respectively including: […]. Then, an agonist 6a-Fluorotestosterone 0.06 μM (concentration: EC80, i.e., 80% agonistic compound concentration) was added, and the mixture was incubated at 37° C. or at room temperature for 3-16 h.
4. Signal detection: 12.5 μL or 15 μL (50%, v/v) PathHunter detection mixed solution (kit: DiscoverX product catalog number: 93-0001 series) was added, and incubated at room temperature for 1 h. The chemiluminescent signal was read with a PerkinElmer Envision™ instrument.
5. Data analysis: The compound activity was analyzed with CBIS data analysis software (ChemInnovation, CA). The calculation formula of the inhibition percent of the antagonist is as follows: IC50 inhibition ratio (%)=[…]×(1−(average RLU value of the test compound−average RLU value of the blank control group)/(average RLU value of EC80 control group−average RLU value of the blank control group)).

SMILES	IC50
CCc1nc(OCCO)c2cc(N3C(=S)N(c4ccc(C#N)c(C(F)(F)F)c4)C(=O)C3(C)C)ccc2n1 [Compound 27]	2210 nM
CCOc1cc(=O)n2cc(N3C(=S)N(c4ccc(C#N)c(C(F)(F)F)c4)C(=O)C3(C)C)cc(F)c2n1 [Compound 55]	1400 nM
CCc1nc(-c2c[nH]cn2)c2cc(N3C(=S)N(c4ccc(C#N)c(C(F)(F)F)c4)C(=O)C3(C)C)cc(F)c2n1 [Compound 63]	1340 nM
CCc1cc(=O)n2cc(N3C(=S)N(c4ccc(C#N)c(C(F)(F)F)c4)C(=O)C3(C)C)cc(C)c2n1 [Compound 60]	1830 nM
CCOc1nc(OCCO)c2cc(N3C(=S)N(c4cnc(C#N)c(C(F)(F)F)c4)C(=O)C3(C)C)cc(F)c2n1 [Compound 72]	2410 nM
CCc1nc2c(F)cc(N3C(=S)N(c4ccc(C#N)c(C(F)(F)F)c4)C(=O)C3(C)C)cn2c(=O)c1O [Compound 39]	5950 nM
CCc1nc2ccc(N3C(=S)N(c4ccc(C#N)c(C(F)(F)F)c4)C(=O)C3(C)C)cn2c(=O)c1OCCO [Compound 38]	3580 nM
COc1nc(OCCO)c2cc(N3C(=S)N(c4ccc(C#N)c(C(F)(F)F)c4)C(=O)C3(C)C)cc(F)c2n1 [Compound 71]	2760 nM
CCc1nc(OCCO)c2cc(N3C(=S)N(c4ccc(C#N)c(C(F)(F)F)c4)C(=O)C34CCC4)cc(F)c2n1 [Compound 20]	1560 nM
CCc1nc2ccc(N3C(=S)N(c4ccc(C#N)c(C(F)(F)F)c4)C(=O)C3(C)C)cn2c(=O)c1OCCOC [Compound 37]	4470 nM
CCc1nc2c(F)cc(N3C(=S)N(c4ccc(C#N)c(C(F)(F)F)c4)C(=O)C3(C)C)cn2c(=O)c1OCC(=O)NC [Compound 42]	2200 nM
CC1(C)C(=O)N(c2ccc(C#N)c(C(F)(F)F)c2)C(=S)N1c1ccc2nc(OCCO)ncc2c1 [Compound 14]	4900 nM
CC1(C)C(=O)N(c2ccc(C#N)c(C(F)(F)F)c2)C(=S)N1c1ccc2c(=O)n(CC(F)(F)F)ncc2c1 [Compound 6]	3070 nM
CCc1nc2c(F)cc(N3C(=S)N(c4ccc(C#N)c(C(F)(F)F)c4)C(=O)C3(C)C)cn2c(=O)c1OCCO [Compound 41]	2750 nM
CCc1nc(OCC2COC2)c2cc(N3C(=S)N(c4ccc(C#N)c(C(F)(F)F)c4)C(=O)C3(C)C)cc(F)c2n1 [Compound 29]	830 nM
CC1(C)C(=O)N(c2ccc(C#N)c(C(F)(F)F)c2)C(=S)N1c1cc(F)c2nc(OCCO)cc(=O)n2c1 [Compound 67]	2300 nM
CC1(C)C(=O)N(c2cnc(C#N)c(C(F)(F)F)c2)C(=S)N1c1cc(F)c2nc(C(F)F)cc(=O)n2c1 [Compound 74]	2960 nM
CCc1nc(OCCO)c2cc(N3C(=S)N(c4cnc(C#N)c(C(F)(F)F)c4)C(=O)C34CCC4)cc(F)c2n1 [Compound 25]	1220 nM
COc1nc(OCCO)c2cc(N3C(=S)N(c4cnc(C#N)c(C(F)(F)F)c4)C(=O)C3(C)C)cc(F)c2n1 [Compound 73]	2130 nM
CC1(C)C(=O)N(c2ccc(C#N)c(C(F)(F)F)c2)C(=S)N1c1cc(F)c2nc(C3CC3)nc(OCCO)c2c1 [Compound 18]	2840 nM
CCOc1nc(OCCO)c2cc(N3C(=S)N(c4ccc(C#N)c(C(F)(F)F)c4)C(=O)C3(C)C)cc(F)c2n1 [Compound 70]	4270 nM
CC1(C)C(=O)N(c2cnc(C#N)c(C(F)(F)F)c2)C(=S)N1c1cc(F)c2nc(C(F)F)nc(OCCO)c2c1 [Compound 26]	1710 nM
CC1(C)C(=O)N(c2ccc(C#N)c(C(F)(F)F)c2)C(=S)N1c1ccc2nn(C3COCC3O)cc2c1 (stereo not drawn) [Compound 8]	4270 nM
CC(F)(F)c1nc(OCCO)c2cc(N3C(=S)N(c4ccc(C#N)c(C(F)(F)F)c4)C(=O)C3(C)C)cc(F)c2n1 [Compound 49]	1430 nM
CCc1nc2c(F)cc(N3C(=S)N(c4ccc(C#N)c(C(F)(F)F)c4)C(=O)C3(C)C)cn2c(=O)c1OCCOC [Compound 40]	2150 nM

System: Human prostate cancer LNCaP-FGC cells
Assay: In vivo pharmacodynamic study on subcutaneous xenograft tumor model of human prostate cancer LNCaP-FGC cells
Parameters: species or system CB-17 SCID mice
Settings: 50 mg/kg PO QD, after 21 days of administration, vs solvent control
Experimental: 2.1 Experimental Animals • Species: Mice • Strain: CB-17 SCID mice • Week age and body weight: 6-8 weeks old, 18-22 g body weight • Gender: male • Supplier: Beijing Vital River Laboratory Animal Technology Co., Ltd • Animal Certificate No.: 11400700184227 3. Experimental Method and Steps 3.1 Cell Culture
Human prostate cancer LNCaP-FGC cells (ATCC, Manassas, Virginia) were cultured in vitro monolayers under the culture conditions of RPM11640 medium supplemented with […] fetal bovine serum at 37° C. with 5% CO2. Routine digestion treatment with trypsin-EDTA was performed twice a week for passage. When the cell saturation was 80%-90%, the cells were collected, counted, and inoculated.
0.2 mL (10×10^6) of LNCaP-FGC cells (10×10^6+Matrigel, 1:1) was inoculated subcutaneously to the right back of each CB-17 SCID mouse. When the average tumor volume reached 100-150 mm^3, administration in groups was started.
The tumor diameters were measured with a vernier caliper twice a week. The calculation formula of the tumor volume is: V=0.5a×b^2, wherein a and b represent the long diameter and the short diameter of the tumor, respectively. The antitumor efficacy of the compounds were evaluated by TGI (%) or a relative tumor proliferation rate T/C (%). TGI(%)=[(1−(average tumor volume of a treatment group at the end of drug administration−average tumor volume of the treatment group at the beginning of drug administration))/(average tumor volume of the vehicle control group at the end of treatment−average tumor volume of the vehicle control group at the beginning of treatment)]×100%. The calculation formula of the relative tumor proliferation rate T/C (%) is as follows: T/C %=TRTV/CRTV×100% (TRTV: RTV of a treatment group; CRTV: RTV of a negative control group). The relative tumor volume (RTV) is calculated based on the tumor measurement results, and the calculation formula is RTV=Vt/V0, wherein V0 is the average tumor volume measured at the time of administration in groups (i.e., do), Vt is the average tumor volume at one measurement, and TRTV and CRTV are the data obtained on the same day.
The statistical analysis includes mean and standard error of mean (SEM) of the tumor volume at each time point for each group. […] The comparison between two groups was analyzed by T-test, and the comparison between three or more groups was analyzed by one-way ANOVA. If there was a significant difference in the F value, the Games-Howell method was used for testing. If there was no significant difference in the F value, the Dunnet (2-sided) method was used for analysis. All data analysis was performed by using SPSS 17.0. “p<0.05” was considered a significant difference.

SMILES	TGI	relative tumor proliferation rate T/C
CCc1nc(OCCO)c2cc(N3C(=S)N(c4ccc(C#N)c(C(F)(F)F)c4)C(=O)C3(C)C)ccc2n1 [Compound 27]	51.0%	53.1%

System: not listed separately
Assay: Tissue distribution test of Compound 27 and Compound 10 (plasma and brain)
Format: in vivo
Settings: intragastric 2 mg/kg, 2 h after administration, male CD-1 mice
Experimental: Taking male CD-1 mice as test animals, drug concentrations in plasma and brain after intragastric administration of Compound 27 and Compound 10 to the mice were determined by the LC/MS/MS method, respectively.
2.2 Test Animals: Six healthy adult male CD-1 mice were divided into 2 groups, with 3 mice in each group, according to the principle of similar body weight. The animals were purchased from Shanghai Super-BK Laboratory Animal Co., Ltd., with Animal Production License No.: SCXK (Shanghai) 2013-0016.
An appropriate amount of sample was weighed, and an appropriate amount of DMSO, PEG400 and water were added successively at a volume ratio of 10:40:50. After stirring and ultrasonic processing, the resulting mixture reached a clear solution state of 0.4 mg/mL.
Six male CD-1 mice were divided into 2 groups, fasted overnight, and intragastrically administered at an administration volume of 5 mL/kg in a dose of 2 mg/kg.
After Compound 27 and Compound 10 were intragastrically administered to the male CD-1 mice, 100 μL of blood was collected by cardiac puncture at 2 h, placed in a test tube containing 2 μl of EDTA-K2, and centrifuged at 3000 g for 15 min to separate 50 μL of plasma, which was stored at −60° C. Meanwhile, brain tissues were collected, washed, then homogenized with 5-fold 15 mM PBS/MeOH (v:v, 2:1), and stored at −60° C. The animals were allowed to eat 2 hours after administration.
After intragastric administration to the mice, the content of the test compound in plasma and brain was determined by the LC/MS/MS method. The linear range of the method was 2.00-6000 nmol/L; and the plasma samples were analyzed after the treatment with acetonitrile precipitated protein.

SMILES	Concentration in Brain
CCc1nc(OCCO)c2cc(N3C(=S)N(c4ccc(C#N)c(C(F)(F)F)c4)C(=O)C3(C)C)ccc2n1 [Compound 27]	85.2 ± 21.9 nmol/kg

Same assay, conditions: mouse, brain / plasma, oral; intragastric 2 mg/kg, 2 h after administration, male CD-1 mice; read-out: Brain to Blood Ratio

SMILES	Kp at 2 h
CCc1nc(OCCO)c2cc(N3C(=S)N(c4ccc(C#N)c(C(F)(F)F)c4)C(=O)C3(C)C)ccc2n1 [Compound 27]	0.00917 ± 0.0004

Same assay, conditions: mouse, plasma, oral; intragastric 2 mg/kg, 2 h after administration, male CD-1 mice

SMILES	concentration at 2 h
CCc1nc(OCCO)c2cc(N3C(=S)N(c4ccc(C#N)c(C(F)(F)F)c4)C(=O)C3(C)C)ccc2n1 [Compound 27]	9.25 ± 2.11 µM
